Experimental findings from DBAASP are described below.

Values after ≈ are worked out from the molar mass of the structure shown. Values joined by “and” are separate entries in the source; they are usually repeats but may differ in a detail not shown here. Identical values can stand only once.

Holding throughout (assay): ≥ marks a high value that may be exact or a test limit, other limits are often not marked, values filed in µg/mL are converted to µM
Experiment [1] has as its system Staphylococcus aureus NCTC 8325.
Experiment [2] concerns Escherichia coli ATCC 25922.
Experiment [3] deals with Pseudomonas aeruginosa ATCC 9027.
Experiment [4] relates to Staphylococcus aureus ATCC 6538.
Experiment [5] relates to Staphylococcus aureus NCTC 10788.
Experiment [6] has as its system Candida albicans ATCC 2002.
Experiment [7] concerns Acinetobacter baumannii ATCC 19606.
The subject of experiment [8] is Staphylococcus aureus ATCC 25923.
Experiment [9] deals with Pseudomonas aeruginosa ATCC 27853.
The test system of experiment [10] is Enterococcus faecalis ATCC 29212.
Experiment [11] relates to Staphylococcus aureus ATCC 29213.
Experiment [12] deals with Candida albicans ATCC 10231.
Experiment [13] relates to Staphylococcus epidermidis ATCC 12228.
Experiment [14] deals with Salmonella enterica subsp. enterica serovar Typhimurium C77-31.
The test system of another experiment is Escherichia coli UB1005.

On to `CC[C@H](C)[C@H](NC(=O)[C@H](CC(C)C)NC(=O)[C@H](CO)NC(=O)[C@@H](NC(=O)[C@H](CC(C)C)NC(=O)[C@H](CO)NC(=O)[C@@H]1CCCN1C(=O)[C@H](CC(C)C)NC(=O)CNC(=O)[C@H](CCCCN)NC(=O)[C@H](C)NC(=O)[C@H](CC(C)C)NC(=O)[C@H](C)NC(=O)CNC(=O)[C@@H](NC(=O)[C@@H](NC(=O)[C@H](CO)NC(=O)CNC(=O)[C@H](Cc1ccccc1)NC(=O)[C@@H](N)Cc1ccccc1)[C@@H](C)CC)[C@@H](C)CC)[C@@H](C)CC)C(=O)N[C@@H](CCCCN)C(=O)N[C@@H](CCCCN)C(N)=O` [FFGSIIGALAKGLPSLISLIKK], for which the MIC – broadly, the smallest concentration in the dilution series that meets the test's criterion for growth inhibition – in experiment [1] came out at 12.5 µM (≈ 28.4 µg/mL); in [2] it was 6 µM (≈ 13.6 µg/mL).

As to `CC(C)C[C@H](NC(=O)[C@H](C)NC(=O)[C@H](CCCCN)NC(=O)[C@H](CCCCN)NC(=O)[C@H](Cc1ccccc1)NC(=O)[C@H](C)NC(=O)[C@H](CCCCN)NC(=O)[C@H](C)NC(=O)[C@H](Cc1ccccc1)NC(=O)[C@H](CC(C)C)NC(=O)[C@H](CCCCN)NC(=O)[C@H](C)NC(=O)[C@@H](N)Cc1ccccc1)C(N)=O` [FAKLFAKAFKKAL], the results for the MIC in [3] and in [4] were 135 µM (≈ 200 µg/mL) and 67.4 µM (≈ 99.9 µg/mL), respectively.

Regarding `CC(C)C[C@H](NC(=O)[C@H](CCCCN)NC(=O)[C@H](CCCCN)NC(=O)[C@H](CC(C)C)NC(=O)[C@H](C)NC(=O)[C@H](CCCCN)NC(=O)[C@H](C)NC(=O)[C@H](CC(C)C)NC(=O)[C@H](CC(C)C)NC(=O)[C@H](CCCCN)NC(=O)[C@H](C)NC(=O)[C@@H](N)Cc1ccccc1)C(N)=O` [FAKLLAKALKKL], the minimum inhibitory concentration (MIC) was determined as 18.6 µM (≈ 25 µg/mL) in experiment [3] and 7.44 µM (≈ 9.99 µg/mL) in [4].

Regarding `CC(C)C[C@H](NC(=O)[C@H](CC(C)C)NC(=O)[C@H](CO)NC(=O)CNC(=O)[C@H](CC(C)C)NC(=O)[C@H](CC(C)C)NC(=O)CNC(=O)[C@H](CC(C)C)NC(=O)[C@@H](N)Cc1ccccc1)C(N)=O` [FLGLLGSLL], the MIC in experiment [5] is ≥ 34 µM.

`CC[C@H](C)[C@H](NC(=O)[C@H](C)NC(=O)[C@H](CCCN=C(N)N)NC(=O)[C@H](Cc1ccc(O)cc1)NC(=O)[C@H](CC(C)C)NC(=O)[C@H](CC(N)=O)NC(=O)[C@H](Cc1ccc(O)cc1)NC(=O)CNC(=O)[C@H](C)NC(=O)[C@@H](NC(=O)[C@@H](NC(=O)[C@@H](NC(=O)[C@H](CCCN=C(N)N)NC(=O)[C@@H](NC(=O)[C@@H](NC(=O)[C@@H](N)C(C)C)C(C)C)[C@@H](C)CC)[C@@H](C)O)C(C)C)C(C)C)C(=O)N[C@@H](CCCCN)C(=O)N[C@@H](CCCCN)C(=O)N[C@@H](CCCCN)C(=O)O` [VVIRTVVAGYNLYRAIKKK] gave an MIC in experiment [6] of 25.7 µM (≈ 56.3 µg/mL).

With `CSCC[C@H](NC(=O)[C@H](CCCCN)NC(=O)[C@H](CC(C)C)NC(=O)[C@H](CC(C)C)NC(=O)[C@H](Cc1cnc[nH]1)NC(=O)[C@@H]1CCCN1C(=O)[C@H](CC(C)C)NC(=O)[C@H](CC(C)C)NC(=O)[C@H](Cc1c[nH]c2ccccc12)NC(=O)[C@H](CC(C)C)NC(=O)[C@H](CCCCN)NC(=O)[C@H](CCC(=O)O)NC(=O)CNC(=O)[C@H](C)NC(=O)[C@@H](NC(=O)[C@H](C)N)C(C)C)C(=O)N[C@@H](CC(C)C)C(=O)N[C@@H](CC(C)C)C(=O)N[C@H](C(=O)N1CCC[C@H]1C(=O)N[C@H](C(=O)N1CCC[C@H]1C(N)=O)[C@@H](C)O)[C@@H](C)O` [AVAGEKLWLLPHLLKMLLTPTP], the MIC is > 164 µM in experiment [7]; > 164 µM in experiment [2]; 164 µM (≈ 400 µg/mL) in experiment [8]; > 164 µM in experiment [9]; 164 µM (≈ 400 µg/mL) in experiment [10].

In experiment [1], `CC[C@H](C)[C@@H]1NC(=O)[C@H](C)NC(=O)[C@@H](NC(=O)[C@H](Cc2ccccc2)NC(=O)[C@@H](NC(=O)[C@H](CCCCN)NC(=O)[C@@H]2CCCN2C(=O)[C@H](CC(C)C)NC(=O)[C@H](Cc2ccccc2)NC(=O)[C@H](CCCCN)NC(=O)[C@H](C)NC(=O)[C@H](C)NC(=O)[C@H](CCSC)NC(=O)CNC(=O)[C@H](C)NC(=O)[C@@H](NC(=O)[C@H](Cc2ccccc2)NC(=O)[C@@H]2CCCN2C(=O)[C@H](CC(C)C)NC(=O)[C@@H](N)Cc2ccccc2)[C@@H](C)CC)[C@@H](C)CC)CSSC[C@@H](C(=O)O)NC(=O)[C@H](CCCCN)NC(=O)[C@H](CCCCN)NC(=O)[C@H](CO)NC1=O` [FLPFIAGMAAKFLPKIFCAISKKC] came in with an MIC of 2 µM (≈ 5.29 µg/mL).

Turning to `CC[C@H](C)[C@H](NC(=O)[C@H](CC(C)C)NC(=O)[C@H](CC(C)C)NC(=O)[C@@H]1CCCN1C(=O)[C@H](CCCCN)NC(=O)[C@H](CC(C)C)NC(=O)[C@H](CCCCN)NC(=O)[C@@H]1CCCN1C(=O)[C@H](CC(C)C)NC(=O)[C@H](CC(C)C)NC(=O)[C@H](CC(C)C)NC(=O)[C@H](CCCCN)NC(=O)[C@H](CC(C)C)NC(=O)[C@H](CC(C)C)NC(=O)[C@H](CCCCN)NC(=O)[C@@H](N)Cc1ccc(O)cc1)C(=O)N[C@@H](CCCCN)C(=O)N[C@@H](CC(C)C)C(N)=O` [YKLLKLLLPKLKPLLIKL], the MIC in experiment [9] came to 5.27 µM (≈ 11.3 µg/mL); in [11], 2.28 µM (≈ 4.9 µg/mL); in experiment [12], 67.3 µM (≈ 144 µg/mL).

With `CC[C@H](C)[C@H](NC(=O)[C@H](C)NC(=O)[C@H](CCCN=C(N)N)NC(=O)[C@H](Cc1ccc(O)cc1)NC(=O)[C@H](CC(C)C)NC(=O)[C@H](CC(N)=O)NC(=O)[C@H](Cc1ccc(O)cc1)NC(=O)CNC(=O)[C@H](C)NC(=O)[C@@H](NC(=O)[C@@H](NC(=O)[C@@H](NC(=O)[C@H](CCCN=C(N)N)NC(=O)[C@@H](NC(=O)[C@@H](N)C(C)C)[C@@H](C)CC)[C@@H](C)O)C(C)C)C(C)C)C(=O)N[C@@H](CCCCN)C(=O)N[C@@H](CCCCN)C(=O)N[C@@H](CCCCN)C(=O)O` [VIRTVVAGYNLYRAIKKK], the MIC in experiment [6] was ≥ 35.8 µM.

With `CC(C)C[C@H](NC(=O)[C@H](C)NC(=O)[C@H](CCCCN)NC(=O)[C@H](CCCCN)NC(=O)[C@H](CC(C)C)NC(=O)[C@H](Cc1ccccc1)NC(=O)[C@H](CCCCN)NC(=O)[C@H](C)NC(=O)[C@H](CC(C)C)NC(=O)[C@H](CC(C)C)NC(=O)[C@H](CCCCN)NC(=O)[C@H](C)NC(=O)[C@@H](N)Cc1ccccc1)C(N)=O` [FAKLLAKFLKKAL], the results for the MIC in [3] and in [4] were 134 µM (≈ 200 µg/mL) and 6.71 µM (≈ 9.99 µg/mL), respectively.

Take `CC(C)C[C@H](NC(=O)[C@H](Cc1ccccc1)NC(=O)[C@H](CCCCN)NC(=O)[C@H](CCCCN)NC(=O)[C@H](CC(C)C)NC(=O)[C@H](C)NC(=O)[C@H](CCCCN)NC(=O)[C@H](C)NC(=O)[C@H](CC(C)C)NC(=O)[C@H](CC(C)C)NC(=O)[C@H](CCCCN)NC(=O)[C@H](C)NC(=O)[C@@H](N)Cc1ccccc1)C(N)=O` [FAKLLAKALKKFL]: the minimum inhibitory concentration (MIC) came to 67.1 µM (≈ 99.9 µg/mL) in experiment [3] and 6.71 µM (≈ 9.99 µg/mL) in experiment [4].

Regarding `CC(C)C[C@H](NC(=O)[C@H](CC(C)C)NC(=O)[C@H](CCCCN)NC(=O)[C@H](CCCCN)NC(=O)[C@H](CC(C)C)NC(=O)[C@H](CO)NC(=O)[C@H](CCCCN)NC(=O)[C@H](CC(C)C)NC(=O)[C@@H](N)Cc1ccccc1)C(N)=O` [FLKSLKKLL], the MIC in [7] was > 117 µM; in [2] it was 58.7 µM (≈ 63.9 µg/mL); in experiment [8] it was 117 µM (≈ 128 µg/mL); in experiment [9] it was 7.34 µM (≈ 7.99 µg/mL).

`CC[C@H](C)[C@H](NC(=O)[C@H](Cc1c[nH]c2ccccc12)NC(=O)[C@H](CCCCN)NC(=O)[C@H](CC(C)C)NC(=O)[C@@H](NC(=O)[C@H](CCCCN)NC(=O)CNC(=O)[C@@H](NC(=O)[C@H](CCCCN)NC(=O)[C@H](CCCCN)NC(=O)[C@H](CC(C)C)NC(=O)[C@H](CCCN=C(N)N)NC(=O)[C@H](CCCCN)NC(=O)[C@H](CCCN=C(N)N)NC(=O)[C@@H](NC(=O)[C@H](CCCCN)NC(=O)[C@H](CCCCN)NC(=O)[C@H](CCCN=C(N)N)NC(=O)[C@H](CC(C)C)NC(=O)[C@H](CCCN=C(N)N)NC(=O)[C@H](CCCN=C(N)N)NC(=O)[C@H](Cc1ccccc1)NC(=O)[C@H](CCCN=C(N)N)NC(=O)CN)[C@@H](C)O)[C@@H](C)CC)C(C)C)C(N)=O` [GRFRRLRKKTRKRLKKIGKVLKWI]: the MIC in [13] is 2 µM (≈ 6.13 µg/mL); in experiment [2] it was 1 µM and 2 µM; in experiment [8], 4 µM (≈ 12.3 µg/mL); in experiment [11], 2 µM (≈ 6.13 µg/mL); in [14], 1 µM (≈ 3.06 µg/mL); against Escherichia coli UB1005, 2 µM (≈ 6.13 µg/mL).

For the molecule `CC(C)C[C@H](NC(=O)[C@H](CCCN=C(N)N)NC(=O)[C@H](CCCCN)NC(=O)[C@H](Cc1c[nH]c2ccccc12)NC(=O)[C@@H](NC(=O)[C@H](CCCCN)NC(=O)[C@H](CCCCN)NC(=O)[C@H](CCCN=C(N)N)NC(=O)[C@H](CC(C)C)NC(=O)[C@H](CCCN=C(N)N)NC(=O)[C@@H](N)CCCN=C(N)N)[C@@H](C)O)C(=O)N[C@@H](Cc1c[nH]c2ccccc12)C(N)=O` [RRLRKKTWKRLW], the MIC is 64 µM (≈ 110 µg/mL) in experiment [13]; 16 µM (≈ 27.6 µg/mL) in experiment [2]; > 128 µM in experiment [8]; 64 µM (≈ 110 µg/mL) in [11]; ≥ 64 µM in experiment [14]; ≥ 32 µM against Escherichia coli UB1005.
